Assay results taken from publication PMC7226205 (Biomolecules, 2020).

Tests used:
[1] = target: T1, RUVBL2 (Homo sapiens, UniProt Q9Y230); assay: ATP/NADH coupled ATPase assay; type: biochemical
T1 construct: recombinant from E. coli BL21(DE3) pRIL

[2] = target: T2, ScRvb2 (Saccharomyces cerevisiae, UniProt Q12464); assay: ATP/NADH coupled ATPase assay; conditions: 10 µM protomer, pH 7.5, 37 °C
T2 construct: gene RVB2
T2 sequence (Q12464 whole entry): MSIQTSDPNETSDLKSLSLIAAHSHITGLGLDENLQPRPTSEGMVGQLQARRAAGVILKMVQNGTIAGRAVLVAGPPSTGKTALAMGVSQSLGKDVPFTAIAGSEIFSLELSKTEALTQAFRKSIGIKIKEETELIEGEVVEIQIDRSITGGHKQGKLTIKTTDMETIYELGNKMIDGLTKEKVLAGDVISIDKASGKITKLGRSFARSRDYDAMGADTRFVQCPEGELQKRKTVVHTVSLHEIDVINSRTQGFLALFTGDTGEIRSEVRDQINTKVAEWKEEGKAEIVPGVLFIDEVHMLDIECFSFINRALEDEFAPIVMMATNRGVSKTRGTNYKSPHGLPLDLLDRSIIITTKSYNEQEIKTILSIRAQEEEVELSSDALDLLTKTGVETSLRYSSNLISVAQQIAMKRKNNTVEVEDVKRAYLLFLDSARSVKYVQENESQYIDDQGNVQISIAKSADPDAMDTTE

T1 sequence (Q9Y230 whole entry): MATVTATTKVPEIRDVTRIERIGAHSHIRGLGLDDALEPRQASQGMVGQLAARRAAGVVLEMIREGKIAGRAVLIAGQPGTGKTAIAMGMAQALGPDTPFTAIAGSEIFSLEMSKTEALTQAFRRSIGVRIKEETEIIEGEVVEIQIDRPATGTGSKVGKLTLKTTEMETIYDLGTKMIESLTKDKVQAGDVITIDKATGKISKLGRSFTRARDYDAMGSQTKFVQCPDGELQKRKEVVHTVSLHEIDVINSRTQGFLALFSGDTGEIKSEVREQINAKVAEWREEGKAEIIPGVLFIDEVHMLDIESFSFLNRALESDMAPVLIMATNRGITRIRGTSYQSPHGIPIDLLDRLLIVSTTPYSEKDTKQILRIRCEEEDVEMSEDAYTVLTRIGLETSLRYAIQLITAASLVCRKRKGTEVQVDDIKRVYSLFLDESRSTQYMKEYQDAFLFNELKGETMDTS

SMILES | inhibition at 15 µM [1] | % inhibition at 30 μM [2]
CNC(=O)c1cc(Oc2ccc(NC(=O)Nc3ccc(Cl)c(C(F)(F)F)c3)c(F)c2)ccn1 [regorafenib] | ~40% | 
CNC(=O)c1cc(Oc2ccc(NC(=O)Nc3ccc(Cl)c(C(F)(F)F)c3)cc2)ccn1 [sorafenib] |  | sorafenib can inhibit RUVBL2 from Saccharomyces cerevisiae (named ScRvb2) although less efficiently
